PMC8991007, “Benzylic Dehydroxylation of Echinocandin Antifungal Drugs Restores Efficacy against Resistance Conferred by Mutated Glucan Synthase” (Journal of the American Chemical Society, 2022)
Values after ≈ are worked out from the molar mass of the structure shown. Like-named read-outs stand apart in the source and are kept apart here. *1 amine or outer side, *2 acyl side, *3 side chain or, on linkers, in order; H or OH if unused. Where a SMILES comes first, the peptide text is derived from it. Bridges are numbered along the chain shown (N, C = ends). [ ]: non-standard residue; d: D form. The star is where a group is joined. Orn(4R-OH,5R-OCH2CH2NMe3+) = C[N+](C)(C)CCO[C@@H](N[*:3])[C@H](O)C[C@H](N[*:1])C(=O)[*:2]; pTerphenylCO(4''-OnC5H11) = CCCCCOc1ccc(-c2ccc(-c3ccc(C(=O)*)cc3)cc2)cc1; Orn(4R-OH,5R-OH) = O=C([C@H](C[C@@H](O)[C@@H](O)N[*:3])N[*:1])[*:2]; hTyr(3S-OH,4S-OH) = N[C@H](C(=O)O)[C@H](O)[C@@H](O)c1ccc(O)cc1; Pro(3S-OH,4S-Me) = C[C@H]1CN[C@H](C(=O)O)[C@H]1O; hTyr(3R-OH) = N[C@H](C(=O)O)[C@H](O)Cc1ccc(O)cc1; Hyp = O=C(O)[C@@H]1C[C@@H](O)CN1

Assays:
C. glabrata = experiment: Minimum inhibitory concentration broth double-dilution assay; assay type: cell-based, Candida glabrata; settings: for MIC: 24 h, 30 °C
Experimental: The antifungal activities of compounds 1 and 2 were evaluated against a panel of 50 strains of C. albicans and C. glabrata (Table S4), including echinocandin-resistant strains that were constructed by introducing mutations within and near the defined hotspots in the FKS1 and/or FKS2 genes.[27] To evaluate antifungal activity, we determined MIC values. The MIC was defined as the lowest drug concentration that led to turbidity (measured at 600 nm) of less than or equal to 35% of that of the untreated culture. As controls, we tested CSF, MCF, ANF, and RZF.
All of the tested compounds were dissolved in anhydrous DMSO to a concentration of 5 mg/mL. Candida strains were streaked from a glycerol stock onto YPAD agar plates and grown for 24 h at 30 °C. Colonies were suspended in 1 mL of PBS and diluted to an O.D. of 0.01 at 600 nm with YPAD broth and added into flat-bottom 96-well microplates (Corning) containing a gradient of twofold dilutions per tested compound with concentrations ranging from 64 to 0.0009 μg/mL. Control wells with no drug and blank wells without yeast cells containing YPAD only were also prepared. […] Each concentration was tested in triplicate, and results were confirmed by at least two independent sets of experiments.

[1] = design: method as in PMID 23335738; settings: patients with candidemia or invasive candidiasis, 200 mg loading dose day 1 then daily 100 mg; cited from earlier work
[2] = healthy volunteers, single 400 mg dose, a few hours after administration; cited from earlier work
[3] = #38 C. glabrata CBS138 (ATCC 2001)

Structure (SMILES)	MIC (C. glabrata; #9 C. glabrata EF1620) [µg/mL]	MIC (C. glabrata; #10 C. glabrata TGL00277) [µg/mL]	MIC (C. glabrata; #11 C. glabrata TGL00275) [µg/mL]	MIC (C. glabrata; #12 C. glabrata CST78) [µg/mL]	MIC (C. glabrata; #13 C. glabrata TGL00265) [µg/mL]	MIC (C. glabrata; #14 C. glabrata TGL00264) [µg/mL]	MIC (C. glabrata; #15 C. glabrata TGL00263) [µg/mL]	MIC (C. glabrata; #16 C. glabrata TGL00065) [µg/mL]	MIC (C. glabrata; #17 C. glabrata CST34) [µg/mL]	MIC (C. glabrata; #18 C. glabrata TGL00258) [µg/mL]	MIC (C. glabrata; #19 C. glabrata TGL00256) [µg/mL]	MIC (C. glabrata; #20 C. glabrata TGL00107) [µg/mL]	MIC (C. glabrata; #21 C. glabrata TGL00056) [µg/mL]	MIC (C. glabrata; #22 C. glabrata M12) [µg/mL]	MIC (C. glabrata; #23 C. glabrata TGL00270) [µg/mL]	MIC (C. glabrata; #24 C. glabrata TGL00269) [µg/mL]	MIC (C. glabrata; #25 C. glabrata TGL00268) [µg/mL]	MIC (C. glabrata; #26 C. glabrata TGL00268) [µg/mL]	MIC (C. glabrata; #27 C. glabrata EB0911) [µg/mL]	MIC (C. glabrata; #28 C. glabrata TGL00261) [µg/mL]	further results
CCCCCOc1ccc(-c2ccc(-c3ccc(C(=O)N[C@H]4C[C@@H](O)[C@@H](O)NC(=O)[C@@H]5[C@@H](O)[C@@H](C)CN5C(=O)[C@H]([C@@H](C)O)NC(=O)[C@H]([C@H](O)[C@@H](O)c5ccc(O)cc5)NC(=O)[C@@H]5C[C@@H](O)CN5C(=O)[C@H]([C@@H](C)O)NC4=O)cc3)cc2)cc1 [ANF, anidulafungin] ({pTerphenylCO(4''-OnC5H11)}-[Orn(4R-OH,5R-OH)]T[Hyp][hTyr(3S-OH,4S-OH)]T[Pro(3S-OH,4S-Me)]; lactam 1-C)	0.008 (≈ 0.00702 µM)	> 64	4 (≈ 3.51 µM)	0.004 (≈ 0.00351 µM)	4 (≈ 3.51 µM)	32 (≈ 28.1 µM)	2 (≈ 1.75 µM)	8 (≈ 7.02 µM)	0.008 (≈ 0.00702 µM)	> 64	2 (≈ 1.75 µM)	> 64	> 64	0.002 (≈ 0.00175 µM)	4 (≈ 3.51 µM)	0.25 (≈ 0.219 µM)	> 64	> 64	0.004 (≈ 0.00351 µM)	2 (≈ 1.75 µM)	MIC (C. glabrata; #29 C. glabrata TGL00109): > 64 µg/mL; MIC (C. glabrata; #30 C. glabrata TGL00259): 16 µg/mL (≈ 14 µM); Cmax [1]: ~7 µM
CCCCCOc1ccc(-c2ccc(-c3ccc(C(=O)N[C@H]4C[C@@H](O)[C@@H](O)NC(=O)[C@@H]5[C@@H](O)[C@@H](C)CN5C(=O)[C@H]([C@@H](C)O)NC(=O)[C@H]([C@H](O)Cc5ccc(O)cc5)NC(=O)[C@@H]5C[C@@H](O)CN5C(=O)[C@H]([C@@H](C)O)NC4=O)cc3)cc2)cc1 [Compound 1, dehydroxy-ANF] ({pTerphenylCO(4''-OnC5H11)}-[Orn(4R-OH,5R-OH)]T[Hyp][hTyr(3R-OH)]T[Pro(3S-OH,4S-Me)]; lactam 1-C)	0.004 (≈ 0.00356 µM)	8 (≈ 7.12 µM)	8 (≈ 7.12 µM)	0.002 (≈ 0.00178 µM)	1 (≈ 0.889 µM)	> 64	1 (≈ 0.889 µM)	16 (≈ 14.2 µM)	0.002 (≈ 0.00178 µM)	32 (≈ 28.5 µM)	0.25 (≈ 0.222 µM)	> 64	> 64	0.002 (≈ 0.00178 µM)	1 (≈ 0.889 µM)	0.063 (≈ 0.056 µM)	> 64	> 64	0.002 (≈ 0.00178 µM)	0.25 (≈ 0.222 µM)	MIC (C. glabrata; #29 C. glabrata TGL00109): 64 µg/mL (≈ 56.9 µM); MIC (C. glabrata; #30 C. glabrata TGL00259): 4 µg/mL (≈ 3.56 µM); MIC (C. glabrata; #31 C. glabrata EF1237): 0.001 µg/mL (≈ 0.000889 µM); MIC (C. glabrata; #36 C. glabrata F15): 0.002 µg/mL (≈ 0.00178 µM); MIC (C. glabrata; [3]): 0.004 µg/mL (≈ 0.00356 µM); MIC (C. glabrata; #41 C. glabrata P35_2): 0.002 µg/mL (≈ 0.00178 µM); MIC (C. glabrata; #43 C. glabrata SLL2glab): 0.002 µg/mL (≈ 0.00178 µM); MIC (C. glabrata; #46 C. glabrata BG2): 0.001 µg/mL (≈ 0.000889 µM); increase in potency on dehydroxylation of ANF (ratio MIC (ANF)/MIC (1)) (C. glabrata; C. glabrata strain 28, Fks2 phenylalanine 659 deleted): 8 fold
CCCCCOc1ccc(-c2ccc(-c3ccc(C(=O)N[C@H]4C[C@@H](O)[C@@H](OCC[N+](C)(C)C)NC(=O)[C@@H]5[C@@H](O)[C@@H](C)CN5C(=O)[C@H]([C@@H](C)O)NC(=O)[C@H]([C@H](O)Cc5ccc(O)cc5)NC(=O)[C@@H]5C[C@@H](O)CN5C(=O)[C@H]([C@@H](C)O)NC4=O)cc3)cc2)cc1 [Compound 2, dehydroxy-RZF] ({pTerphenylCO(4''-OnC5H11)}-[Orn(4R-OH,5R-OCH2CH2NMe3+)]T[Hyp][hTyr(3R-OH)]T[Pro(3S-OH,4S-Me)]; lactam 1-C)	0.015	16	8	0.004	2	32	2	8	0.004	8	0.25	16	> 64	0.002	4	0.063	> 64	> 64	0.004	1	MIC (C. glabrata; #29 C. glabrata TGL00109): 64 µg/mL; MIC (C. glabrata; #30 C. glabrata TGL00259): 8 µg/mL; MIC (C. glabrata; #31 C. glabrata EF1237): 0.002 µg/mL; MIC (C. glabrata; #36 C. glabrata F15): 0.004 µg/mL; MIC (C. glabrata; [3]): 0.008 µg/mL; MIC (C. glabrata; #41 C. glabrata P35_2): 0.004 µg/mL; MIC (C. glabrata; #43 C. glabrata SLL2glab): 0.008 µg/mL; MIC (C. glabrata; #46 C. glabrata BG2): 0.008 µg/mL
CCCCCOc1ccc(-c2ccc(-c3ccc(C(=O)N[C@H]4C[C@@H](O)[C@@H](OCC[N+](C)(C)C)NC(=O)[C@@H]5[C@@H](O)[C@@H](C)CN5C(=O)[C@H]([C@@H](C)O)NC(=O)[C@H]([C@H](O)[C@@H](O)c5ccc(O)cc5)NC(=O)[C@@H]5C[C@@H](O)CN5C(=O)[C@H]([C@@H](C)O)NC4=O)cc3)cc2)cc1 [RZF, rezafungin] ({pTerphenylCO(4''-OnC5H11)}-[Orn(4R-OH,5R-OCH2CH2NMe3+)]T[Hyp][hTyr(3S-OH,4S-OH)]T[Pro(3S-OH,4S-Me)]; lactam 1-C)	0.015	64	16	0.008	16	32	32	> 64	0.008	> 64	4	> 64	> 64	0.008	> 64	1	> 64	> 64	0.015	16	MIC (C. glabrata; #29 C. glabrata TGL00109): 64 µg/mL; MIC (C. glabrata; #30 C. glabrata TGL00259): > 64 µg/mL; Cmax [2]: ~17 µM
